Like-named read-outs stand apart in the source and are kept apart here.
Tests used:
[1] = test system: HBV (HepG2.117 cell line, inducibly HBV producing); assay: Anti-HBV activity: intracellular HBV DNA by real-time PCR in HepG2.117 cells after 3 days of treatment; assay type: cell-based, hepatitis B virus
How it was run: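 HepG2.117 cells replicate HBV under Tet-off control, without doxycycline. After induction of replication, cells were treated with serially diluted compound for 3 days, and intracellular HBV DNA was then quantified by real-time PCR with an HBV-specific primer set and probe.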

in vitro = assay type: cell-based; conditions: human, HepG2 or HepG2.117 cells, ATPlite, mean value; for CC50 at 4 days: 4-days incubation (values marked with *)
How it was run: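 Luminescent ATP quantitation served as the viability endpoint following a 3- or 4-day incubation with test compounds.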

[2] = Hepatitis B virus, HepG2.117, 72 h, HepG2.117 cells, intracellular HBV DNA by real-time PCR, 3 days of treatment, mean value; read-out: EC50 (μM, mean value)
[3] = 3-days incubation (not marked with *)
[4] = Hepatitis B virus, HepG2.117, 72 h, HepG2.117 cells, 3 days of treatment, intracellular HBV DNA by real-time PCR; mean value; read-out: EC50 (μM, mean value)
[5] = 3-days incubation (unmarked values)

Structure (SMILES) | EC50 [1, 2] [µM] | CC50 at 3 days (in vitro; [3]) [µM] | EC50 [1, 4] [µM] | CC50 at 3 days (in vitro; [5]) [µM] | CC50 at 4 days (in vitro) [µM]
CNC(=O)c1ccc(-n2c(N[C@@H](C)c3ccc(OC)cc3)nc3c(c2=O)C[C@@H](C)N(C(=O)c2ccc(Cl)c(Cl)c2)C3)cc1 (single isomer, unassigned) [Compound C347b] | 0.27 | > 50 | – | – | –
CNC(=O)c1ccc(-n2c(NC)nc3c(c2=O)C[C@@H](C)N(C(=O)c2ccc(Cl)c(Cl)c2)C3)nc1 [Compound C331, 6-[(6R)-7-(3,4-dichlorobenzoyl)-6-methyl-2-(methylamino)-4-oxo-5,6,7,8-tetrahydropyrido[3,4-d]pyrimidin-3(4H)-yl]-N-methylpyridine-3-carboxamide] | – | – | 0.95 | > 50 | –
CNC(=O)c1ccc(-n2c(N[C@H](C)c3ccc(F)cc3F)nc3c(c2=O)C[C@@H](C)N(C(=O)c2ccc(Cl)c(Cl)c2)C3)cc1 (single isomer, unassigned) [Compound C689a] | 0.2 | 16.7 | – | – | –
CNC(=O)c1ccc(-n2c(NC3COC(C)(C)C3)nc3c(c2=O)C[C@@H](C)N(C(=O)c2ccc(Cl)c(Cl)c2)C3)cc1 (some centres unmarked) [Compound C480] | 10.3 | > 50 | – | – | –
CNC(=O)c1cnc(-n2c(NC)nc3c(c2=O)C[C@@H](C)N(C(=O)c2ccc(Cl)c(Cl)c2)C3)cn1 [Compound C287, 5-[(6R)-7-(3,4-dichlorobenzoyl)-6-methyl-2-(methylamino)-4-oxo-5,6,7,8-tetrahydropyrido[3,4-d]pyrimidin-3(4H)-yl]-N-methylpyrazine-2-carboxamide] | – | – | 0.75 | > 50 | –
CNC(=O)c1ccc(-n2c(NC(C)C)nc3c(c2=O)C[C@@H](C)N(C(=O)c2ccc(C)c(Br)c2)C3)cc1 [Compound C586] | 0.21 | > 50 | – | – | –
CNC(=O)c1ccc(-n2c(N[C@@H](C)C3CCC3)nc3c(c2=O)C[C@@H](C)N(C(=O)c2ccc(Cl)c(Cl)c2)C3)cc1 (single isomer, unassigned) [Compound C406b] | 0.16 | 24.5 | – | – | –
CNC(=O)c1ccc(-n2c(N[C@H](C)c3ccc4c(ccn4C)c3)nc3c(c2=O)C[C@@H](C)N(C(=O)c2ccc(Cl)c(Cl)c2)C3)cc1 (single isomer, unassigned) [Compound C450a] | 0.02 | > 50 | – | – | –
CC(C)Nc1nc2c(c(=O)n1-c1ccc(S(C)(=O)=O)cc1)CCN(C(=O)c1ccc3ccoc3c1)C2 [Compound C139, 7-(1-benzofuran-6-carbonyl)-3-[4-(methanesulfonyl)phenyl]-2-[(propan-2-yl)amino]-5,6,7,8-tetrahydropyrido[3,4-d]pyrimidin-4(3H)-one] | – | – | 11.2 | > 50 | –
CNC(=O)c1ccc(-n2c(NC(C)C)nc3c(c2=O)C[C@@H](C)N(C(=O)c2cc4c(Br)cccc4[nH]2)C3)cc1 [Compound C569] | 0.01 | 21.4 | – | – | –
CC(=O)Nc1ccc(-n2c(N[C@@H](C)c3ccc4[nH]ncc4c3)nc3c(c2=O)C[C@@H](C)N(C(=O)c2ccc(Cl)c(Cl)c2)C3)cc1 (single isomer, unassigned) [Compound C462b] | 0.37 | > 50 | – | – | –
CC(C)Nc1nc2c(c(=O)n1-c1ccc(S(C)(=O)=O)cc1)CCN(C(=O)c1ccc(Cl)c(C(F)(F)F)c1)C2 [Compound C191, 7-[4-chloro-3-(trifluoromethyl)benzoyl]-3-[4-(methanesulfonyl)phenyl]-2-[(propan-2-yl)amino]-5,6,7,8-tetrahydropyrido[3,4-d]pyrimidin-4(3H)-one] | – | – | 0.4 | > 50 | –
COc1ccc(CNc2nc3c(c(=O)[nH]2)CCN(C(=O)c2ccc(Cl)cc2)C3)cc1 [Compound C115, 7-(4-chlorobenzoyl)-2-{[(4-methoxyphenyl)methyl]amino}-5,6,7,8-tetrahydropyrido[3,4-d]pyrimidin-4(3H)-one] | – | – | 37.1 | 42.8 | –
CNC(=O)c1ccc(-n2c(NCc3nc(C(F)(F)F)n[nH]3)nc3c(c2=O)C[C@@H](C)N(C(=O)c2ccc(Cl)c(Cl)c2)C3)cc1 [Compound C598] | > 25 | > 50 | – | – | –
CC(C)Nc1nc2c(c(=O)n1-c1ccc(S(C)(=O)=O)cc1)CCN(C(=O)c1ccc3scnc3c1)C2 [Compound C366] | – | – | > 10 | > 50 | –
CC(C)Nc1nc2c(c(=O)n1-c1ccc(N3CCOCC3)cc1)CCN(C(=O)c1ccc(Cl)c(Cl)c1)C2 [Compound C130, 7-(3,4-dichlorobenzoyl)-3-[4-(morpholin-4-yl)phenyl]-2-[(propan-2-yl)amino]-5,6,7,8-tetrahydropyrido[3,4-d]pyrimidin-4(3H)-one] | – | – | 0.48 | > 50 | –

Structure (SMILES) | EC50 [1, 2] [µM] | CC50 at 3 days (in vitro; [3]) [µM] | EC50 [1, 4] [µM] | CC50 at 3 days (in vitro; [5]) [µM] | CC50 at 4 days (in vitro) [µM]
CC(C)Nc1nc2c(c(=O)n1-c1ccc(S(C)(=O)=O)cc1)CCN(C(=O)c1ccc3ncn(C)c3c1)C2 [Compound C363] | – | – | > 50 | > 50 | –
COc1ccc(CNc2nc3c(c(=O)n2-c2ccc(C(C)=O)cc2)CCN(C(=O)c2ccc(Cl)c(Cl)c2)C3)cc1 [Compound C126, 3-(4-acetylphenyl)-7-(3,4-dichlorobenzoyl)-2-{[(4-methoxyphenyl)methyl]amino}-5,6,7,8-tetrahydropyrido[3,4-d]pyrimidin-4(3H)-one] | – | – | 1.51 | > 50 | –
COc1ccccc1-n1c(N[C@@H](C)C(F)(F)F)nc2c(c1=O)CCN(C(=O)c1ccc(Cl)c(Cl)c1)C2 [Compound C86, 7-(3,4-dichlorobenzoyl)-3-(2-methoxyphenyl)-2-{[(2S)-1,1,1-trifluoropropan-2-yl]amino}-5,6,7,8-tetrahydropyrido[3,4-d]pyrimidin-4(3H)-one] | – | – | 1.44 | 25.2 | –
CNC(=O)c1ccc(-n2c(NC(C)C)nc3c(c2=O)C[C@@H](C)N(C(=O)c2ccc(Cl)cc2OC)C3)cc1 [Compound C593] | > 25 | > 50 | – | – | –
CNC(=O)c1ccc(-n2c(N[C@H](C)c3cnccn3)nc3c(c2=O)C[C@@H](C)N(C(=O)c2ccc(Cl)c(C(F)(F)F)c2)C3)cc1 (single isomer, unassigned) [Compound C665a] | 0.49 | > 50 | – | – | –
CNC(=O)c1ccc(-n2c(NC(C)C)nc3c(c2=O)C[C@@H](C)N(C(=O)c2ccc(F)c(C)c2)C3)cc1 [Compound C499] | 1.53 | > 50 | – | – | –
COc1ccccc1-n1c(NCC(C)C)nc2c(c1=O)CCN(C(=O)c1ccc(Cl)c(Cl)c1)C2 [Compound C22, 7-(3,4-dichlorobenzoyl)-3-(2-methoxyphenyl)-2-[(2-methylpropyl)amino]-5,6,7,8-tetrahydropyrido[3,4-d]pyrimidin-4(3H)-one] | – | – | 21.7 | – | 26.2
CNC(=O)c1ccc(-n2c(N[C@H](C)c3ccc(OC)cc3)nc3c(c2=O)C[C@@H](C)N(C(=O)c2ccc(Cl)c(Cl)c2)C3)cc1 (single isomer, unassigned) [Compound C347a] | 0.1 | 35.1 | – | – | –
COc1cccc(CNc2nc3c(c(=O)n2-c2ccccc2OC)CCN(C(=O)c2ccc(Cl)c(Cl)c2)C3)c1 [Compound C18, 7-(3,4-dichlorobenzoyl)-3-(2-methoxyphenyl)-2-{[(3-methoxyphenyl)methyl]amino}-5,6,7,8-tetrahydropyrido[3,4-d]pyrimidin-4(3H)-one] | – | – | 3.27 | – | > 50
CC(C)Nc1nc2c(c(=O)n1-c1ccc(-c3n[nH]c(Br)n3)cc1)C[C@@H](C)N(C(=O)c1ccc(Cl)c(Cl)c1)C2 [Compound C249, (6R)-3-[4-(5-bromo-1H-1,2,4-triazol-3-yl)phenyl]-7-(3,4-dichlorobenzoyl)-6-methyl-2-[(propan-2-yl)amino]-5,6,7,8-tetrahydropyrido[3,4-d]pyrimidin-4(3H)-one] | – | – | 0.49 | > 50 | –
CC(Nc1nc2c(c(=O)n1-c1ccc(S(C)(=O)=O)cc1)C[C@@H](C)N(C(=O)c1ccc(Cl)c(Cl)c1)C2)C1CC1 (stereo partly drawn) [Compound C199, (6R)-2-[(1-cyclopropylethyl)amino]-7-(3,4-dichlorobenzoyl)-3-[4-(methanesulfonyl)phenyl]-6-methyl-5,6,7,8-tetrahydropyrido[3,4-d]pyrimidin-4(3H)-one] | – | – | 0.3 | > 50 | –
COc1ccccc1-n1c(NCC2CC2)nc2c(c1=O)CCN(C(=O)c1ccc(Cl)c(Cl)c1)C2 [Compound C50, 2-[(cyclopropylmethyl)amino]-7-(3,4-dichlorobenzoyl)-3-(2-methoxyphenyl)-5,6,7,8-tetrahydropyrido[3,4-d]pyrimidin-4(3H)-one] | – | – | 5.85 | 26.7 | –
CC(C)Nc1nc2c(c(=O)n1-c1ccc(S(C)(=O)=O)cc1)CCN(C(=O)c1ccc(Cl)c(C3CC3)c1)C2 [Compound C225, 7-(4-chloro-3-cyclopropylbenzoyl)-3-[4-(methanesulfonyl)phenyl]-2-[(propan-2-yl)amino]-5,6,7,8-tetrahydropyrido[3,4-d]pyrimidin-4(3H)-one] | – | – | 3.46 | > 50 | –
CNC(=O)c1ccc(-n2c(NCC(n3cncn3)C(F)(F)F)nc3c(c2=O)C[C@@H](C)N(C(=O)c2ccc(Cl)c(Cl)c2)C3)cc1 (some centres unmarked) [Compound C601] | 7.71 | > 50 | – | – | –
CNC(=O)c1ccc(-n2c(NC(C)c3ccc(OC)cc3)nc3c(c2=O)C[C@@H](C)N(C(=O)c2ccc(Cl)c(Cl)c2)C3)cc1 (stereo partly drawn) [Compound C346, 4-[(6R)-7-(3,4-dichlorobenzoyl)-2-{[1-(4-methoxyphenyl)ethyl]amino}-6-methyl-4-oxo-5,6,7,8-tetrahydropyrido[3,4-d]pyrimidin-3(4H)-yl]-N-methylbenzamide] | – | – | 0.13 | 36.3 | –
